In PubChem BioAssay (NCI):
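All cell lines were grown in 96-well plates and treated with compound for 48 hours. Abbreviation: GI50, concentration required for 50% inhibition of growth. TGI denotes the concentration required for complete inhibition of growth.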

Key:
Test in all cases: DTP human tumour cell line panel, 48 h
HT29 colon = tested on: HT29 colon
SR leukemia = tested on: SR leukemia
NCI-H522 lung = tested on: NCI-H522 lung
COLO 205 colon = tested on: COLO 205 colon
BT-549 breast = tested on: BT-549 breast
HCT-15 colon = tested on: HCT-15 colon
HCT-116 colon = tested on: HCT-116 colon
DU-145 prostate = tested on: DU-145 prostate
HOP-62 NSCLC = tested on: HOP-62 NSCLC
PC-3 prostate = tested on: PC-3 prostate
HCC-2998 colon = tested on: HCC-2998 colon
KM12 colon = tested on: KM12 colon
SF-268 CNS = tested on: SF-268 CNS
LOX IMVI melanoma = tested on: LOX IMVI melanoma
786-0 renal = tested on: 786-0 renal
EKVX NSCLC = tested on: EKVX NSCLC
UACC-257 melanoma = tested on: UACC-257 melanoma
A498 renal = tested on: A498 renal
SN12C renal = tested on: SN12C renal
SK-MEL-28 melanoma = tested on: SK-MEL-28 melanoma
UACC-62 melanoma = tested on: UACC-62 melanoma
MOLT-4 leukemia = tested on: MOLT-4 leukemia
NCI/ADR-RES ovarian = tested on: NCI/ADR-RES ovarian
NCI-H460 lung = tested on: NCI-H460 lung
MDA-MB-231 breast = tested on: MDA-MB-231 breast
K-562 leukemia = tested on: K-562 leukemia
T-47D breast = tested on: T-47D breast
SK-OV-3 ovarian = tested on: SK-OV-3 ovarian
SK-MEL-5 melanoma = tested on: SK-MEL-5 melanoma
U251 CNS = tested on: U251 CNS
OVCAR-3 ovarian = tested on: OVCAR-3 ovarian
HS 578T breast = tested on: HS 578T breast
RXF 393 renal = tested on: RXF 393 renal
TK-10 renal = tested on: TK-10 renal
HL-60(TB) leukemia = tested on: HL-60(TB) leukemia
ACHN renal = tested on: ACHN renal
NCI-H226 lung = tested on: NCI-H226 lung
A549 NSCLC = tested on: A549 NSCLC
SF-539 CNS = tested on: SF-539 CNS
MDA-MB-468 breast = tested on: MDA-MB-468 breast
OVCAR-5 ovarian = tested on: OVCAR-5 ovarian
OVCAR-8 ovarian = tested on: OVCAR-8 ovarian
UO-31 renal = tested on: UO-31 renal
M14 melanoma = tested on: M14 melanoma
HOP-92 NSCLC = tested on: HOP-92 NSCLC
IGROV1 ovarian = tested on: IGROV1 ovarian
RPMI-8226 leukemia = tested on: RPMI-8226 leukemia
SK-MEL-2 melanoma = tested on: SK-MEL-2 melanoma
SNB-75 CNS = tested on: SNB-75 CNS
CCRF-CEM leukemia = tested on: CCRF-CEM leukemia
SF-295 CNS = tested on: SF-295 CNS
CAKI-1 renal = tested on: CAKI-1 renal
MCF7 breast = tested on: MCF7 breast
SW-620 colon = tested on: SW-620 colon
MDA-MB-435 = tested on: MDA-MB-435
SNB-19 CNS = tested on: SNB-19 CNS
MALME-3M melanoma = tested on: MALME-3M melanoma
OVCAR-4 ovarian = tested on: OVCAR-4 ovarian
NCI-H23 lung = tested on: NCI-H23 lung

O=C(c1ccc(Cl)cc1)C1[C@H](c2ccccc2Cl)[C@@H](c2ccccc2)NC12C(=O)Nc1ccccc12 (stereo partly drawn)
GI50 (HT29 colon): 14.6 µM | TGI (HT29 colon): 35 µM | GI50 (SR leukemia): 14.7 µM | TGI (SR leukemia): 53.5 µM | GI50 (NCI-H522 lung): 15.2 µM | TGI (NCI-H522 lung): 46.3 µM | GI50 (COLO 205 colon): 16.3 µM | TGI (COLO 205 colon): 29.9 µM | GI50 (BT-549 breast): 16.2 µM | TGI (BT-549 breast): 48.5 µM | GI50 (HCT-15 colon): 25.3 µM | TGI (HCT-15 colon): > 100 µM | GI50 (HCT-116 colon): 14.5 µM | TGI (HCT-116 colon): 29.6 µM | GI50 (DU-145 prostate): 17.1 µM | TGI (DU-145 prostate): 51.2 µM | GI50 (HOP-62 NSCLC): 17.4 µM | TGI (HOP-62 NSCLC): 61.8 µM | GI50 (PC-3 prostate): 14.3 µM | TGI (PC-3 prostate): 72.9 µM | GI50 (HCC-2998 colon): 19.1 µM | TGI (HCC-2998 colon): 51.7 µM | GI50 (KM12 colon): 20.2 µM | TGI (KM12 colon): 58.1 µM | GI50 (SF-268 CNS): 23.2 µM | TGI (SF-268 CNS): > 100 µM | GI50 (LOX IMVI melanoma): 13.2 µM | TGI (LOX IMVI melanoma): 27.3 µM | GI50 (786-0 renal): 20.5 µM | TGI (786-0 renal): 51.6 µM | GI50 (EKVX NSCLC): 23.7 µM | TGI (EKVX NSCLC): > 100 µM | GI50 (UACC-257 melanoma): 23.3 µM | TGI (UACC-257 melanoma): 79 µM | GI50 (A498 renal): 20.8 µM | TGI (A498 renal): 60.1 µM | GI50 (SN12C renal): 13.7 µM | TGI (SN12C renal): 28.4 µM | GI50 (SK-MEL-28 melanoma): 18.2 µM | TGI (SK-MEL-28 melanoma): 40.3 µM | GI50 (UACC-62 melanoma): 12.6 µM | TGI (UACC-62 melanoma): 27.8 µM | GI50 (MOLT-4 leukemia): 20.3 µM | TGI (MOLT-4 leukemia): 74.9 µM | GI50 (NCI/ADR-RES ovarian): 14.9 µM | TGI (NCI/ADR-RES ovarian): 35.8 µM | GI50 (NCI-H460 lung): 17.8 µM | TGI (NCI-H460 lung): 36.8 µM | GI50 (MDA-MB-231 breast): 15 µM | TGI (MDA-MB-231 breast): 40.8 µM | GI50 (K-562 leukemia): 21.7 µM | TGI (K-562 leukemia): > 100 µM | GI50 (T-47D breast): 18.3 µM | TGI (T-47D breast): 74.1 µM | GI50 (SK-OV-3 ovarian): 20.8 µM | TGI (SK-OV-3 ovarian): 82.7 µM | GI50 (SK-MEL-5 melanoma): 15.2 µM | TGI (SK-MEL-5 melanoma): 29.3 µM | GI50 (U251 CNS): 23 µM | TGI (U251 CNS): 64.8 µM | GI50 (OVCAR-3 ovarian): 12.5 µM | TGI (OVCAR-3 ovarian): 35 µM | GI50 (HS 578T breast): 12 µM | TGI (HS 578T breast): 34.6 µM | GI50 (RXF 393 renal): 13.2 µM | TGI (RXF 393 renal): 34.3 µM | GI50 (TK-10 renal): 23.4 µM | TGI (TK-10 renal): 87.9 µM | GI50 (HL-60(TB) leukemia): 17 µM | TGI (HL-60(TB) leukemia): 58.8 µM | GI50 (ACHN renal): 20.9 µM | TGI (ACHN renal): 71.8 µM | GI50 (NCI-H226 lung): 17.6 µM | TGI (NCI-H226 lung): 47.4 µM | GI50 (A549 NSCLC): 24.9 µM | TGI (A549 NSCLC): > 100 µM | GI50 (SF-539 CNS): 18.1 µM | TGI (SF-539 CNS): 36 µM | GI50 (MDA-MB-468 breast): 3.54 µM | TGI (MDA-MB-468 breast): 20.6 µM | GI50 (OVCAR-5 ovarian): 18.5 µM | TGI (OVCAR-5 ovarian): 66.7 µM | GI50 (OVCAR-8 ovarian): 22 µM | TGI (OVCAR-8 ovarian): 72.3 µM | GI50 (UO-31 renal): 16.4 µM | TGI (UO-31 renal): > 100 µM | GI50 (M14 melanoma): 16.3 µM | TGI (M14 melanoma): 43.1 µM | GI50 (HOP-92 NSCLC): 17.7 µM | TGI (HOP-92 NSCLC): 58.4 µM | GI50 (IGROV1 ovarian): 26.1 µM | TGI (IGROV1 ovarian): > 100 µM | GI50 (RPMI-8226 leukemia): 25.7 µM | TGI (RPMI-8226 leukemia): 91.3 µM | GI50 (SK-MEL-2 melanoma): 14.8 µM | TGI (SK-MEL-2 melanoma): 32.1 µM | GI50 (SNB-75 CNS): 11 µM | TGI (SNB-75 CNS): 71.3 µM | GI50 (CCRF-CEM leukemia): 27.2 µM | TGI (CCRF-CEM leukemia): 95 µM | GI50 (SF-295 CNS): 18.2 µM | TGI (SF-295 CNS): 49.7 µM | GI50 (CAKI-1 renal): 18.9 µM | TGI (CAKI-1 renal): > 100 µM | GI50 (MCF7 breast): 16.2 µM | TGI (MCF7 breast): 58.4 µM | GI50 (SW-620 colon): 17.6 µM | TGI (SW-620 colon): 51.2 µM | GI50 (MDA-MB-435): 12.7 µM | TGI (MDA-MB-435): 28.8 µM | GI50 (SNB-19 CNS): 30 µM | TGI (SNB-19 CNS): > 100 µM | GI50 (MALME-3M melanoma): 15.7 µM | TGI (MALME-3M melanoma): 34.8 µM | GI50 (OVCAR-4 ovarian): 25.6 µM | TGI (OVCAR-4 ovarian): > 100 µM | GI50 (NCI-H23 lung): 18.3 µM | TGI (NCI-H23 lung): 52 µM
